Literature values as cited in US11752221B2, “Brush-arm star polymer imaging agents and uses thereof” (priority 2017, dated 2023).
Several values for one entry are separate records, joined by “and”; a condition that tells them apart may be missing. Equal entries are not always repeated. Where two headings read alike, the source gives them in different places.

How the values were obtained:
[1] = 0.2 mM nitroxide, 4.0 mM Asc
[2] = earlier studies
[3] = test system: subcutaneous C26 tumors; details: 0.23 mmol Gd/kg iv dose, after 4 hours

SMILES	Initial kinetics (<1 h) k × 10^4 ([1]; 0.0 mM GSH, data used IPH)	Initial kinetics (<1 h) k′ × 10^4 ([1]; 0.0 mM GSH, data used IPH)	Initial kinetics Avg k × 10^4 ([1]; 0.0 mM GSH, data used IPH)	Initial kinetics (<1 h) k × 10^4 ([1]; 0.0 mM GSH, data used PH)	Initial kinetics (<1 h) k′ × 10^4 ([1]; 0.0 mM GSH, data used PH)	Initial kinetics Avg k × 10^4 ([1]; 0.0 mM GSH, data used PH)	Late kinetics (>1 h) k × 10^4 ([1]; 0.0 mM GSH, data used PH)	Late kinetics (>1 h) k′ × 10^4 ([1]; 0.0 mM GSH, data used PH)	Initial kinetics (<1 h) k × 10^4 ([1]; 5.0 mM GSH, data used IPH)	Initial kinetics (<1 h) k′ × 10^4 ([1]; 5.0 mM GSH, data used IPH)	Initial kinetics Avg k × 10^4 ([1]; 5.0 mM GSH, data used IPH)	Initial kinetics (<1 h) k × 10^4 ([1]; 5.0 mM GSH, data used PH)	Initial kinetics (<1 h) k′ × 10^4 ([1]; 5.0 mM GSH, data used PH)	Initial kinetics Avg k × 10^4 ([1]; 5.0 mM GSH, data used PH)	r1 (per-chex for chex polymers) [2]	contrast enhancement of tumor [3]
CC1(C)CC(C(=O)O)C(C)(C)N1[O] (stereo not shown) [3-CP, 3-carboxy-2,2,5,5-tetramethyl-1-pyrrolidinyloxy]	636.8 M^−1 s^−1 and 624.5 M^−1 s^−1 and 614.8 M^−1 s^−1	2.547 s^−1 and 2.498 s^−1 and 2.459 s^−1	625 ± 22 M^−1 s^−1	636.0 M^−1 s^−1 and 599.0 M^−1 s^−1 and 597.3 M^−1 s^−1	2.504 s^−1 and 2.396 s^−1 and 2.389 s^−1	611 ± 44 M^−1 s^−1	295 M^−1 s^−1	1.18 s^−1	608.8 M^−1 s^−1 and 609.6 M^−1 s^−1 and 605.6 M^−1 s^−1	2.435 s^−1 and 2.438 s^−1 and 2.423 s^−1	608.0 ± 4.2 M^−1 s^−1	590.3 M^−1 s^−1 and 602.4 M^−1 s^−1 and 615.2 M^−1 s^−1	2.361 s^−1 and 2.410 s^−1 and 2.461 s^−1	602.6 ± 25 M^−1 s^−1	0.14 mM⁻¹ s⁻¹	
O=C([O-])CN(CCN(CC(=O)[O-])CC(=O)O)CCN(CC(=O)[O-])CC(=O)O.[Gd+3] [Gd-DTPA]																negligible contrast enhancement
